Data from patent US20260042731A1, “(2,4-DICHLOROPHENOXY)ACETIC ACID ANALOGS” (CORTEVA AGRISCIENCE LLC, priority 2022, published 2026).
Where two headings read alike, the source gives them in different places.

Key:
[1] = tested on: Common Lambsquarters (CHEAL); assay: Greenhouse post-emergence mixture trials, percent visual control; format: in vivo; conditions: CHEAL, 21 DAA; for pest or weed control at 560 g/ha / pest or weed control at 1120 g/ha: Chenopodium album, post-emergence, 504 h; for pest or weed control at 1120 g/ha: read-out: % Control
[2] = tested on: Ambrosia artemisiifolia (AMBEL), common ragweed; assay: Postemergence herbicide evaluation, growth of Ambrosia artemisiifolia (AMBEL); format: in vivo; conditions: Ambrosia artemisiifolia, post-emergence, percent reduction in plant size relative to untreated control, read-out: AVE. AMBEL; for pest or weed control at 280 g/ha: 280 g ae/ha; for pest or weed control at 560 g/ha: 560 g ae/ha
[3] = Volatility of compounds measured by thermogravimetric analysis (TGA); format: physicochemical
[4] = tested on: Abutilon theophrasti (ABUTH), velvetleaf; assay: Postemergence herbicide evaluation, growth of Abutilon theophrasti (ABUTH); format: in vivo; conditions: Abutilon theophrasti, post-emergence, percent reduction in plant size relative to untreated control, read-out: AVE. ABUTH; for pest or weed control at 280 g/ha: 280 g ae/ha; for pest or weed control at 560 g/ha: 560 g ae/ha
[5] = tested on: glyphosate resistant Conyza canadensis (L.) (ERICA), horseweed; assay: Postemergence herbicide evaluation, growth of Conyza canadensis (ERICA); format: in vivo; conditions: Erigeron canadensis, post-emergence, percent reduction in plant size relative to untreated control, read-out: Ave. ERICA; for pest or weed control at 280 g/ha: 280 g ae/ha; for pest or weed control at 560 g/ha: 560 g ae/ha
[6] = tested on: weeds (ABUTH, AMATA, AMBEL, CHEAL, ERICA); assay: Postemergence herbicide evaluation, overall average % weed control across ABUTH, AMATA, AMBEL, CHEAL, ERICA; format: in vivo; conditions: post-emergence, average over the five weeds, read-out: Overall Ave % Weed Control; for pest or weed control at 280 g/ha: 280 g ae/ha; for pest or weed control at 560 g/ha: 560 g ae/ha
[7] = tested on: Chenopodium album (CHEAL), common lambsquarters; assay: Postemergence herbicide evaluation, growth of Chenopodium album (CHEAL); format: in vivo; conditions: Chenopodium album, post-emergence, percent reduction in plant size relative to untreated control, read-out: Ave. CHEAL; for pest or weed control at 280 g/ha: 280 g ae/ha; for pest or weed control at 560 g/ha: 560 g ae/ha
Corn (ZEAMX) = assay: Greenhouse post-emergence mixture trials, percent visual control; format: in vivo; conditions: ZEAMX, 21 DAA; for plant injury at 560 g/ha / plant injury at 1120 g/ha: Zea mays, post-emergence, 504 h; for plant injury at 560 g/ha: compound 560 g ae/ha
Velvetleaf (ABUTH) = assay: as above; format: in vivo; conditions: ABUTH, 21 DAA; for pest or weed control at 560 g/ha / pest or weed control at 1120 g/ha: Abutilon theophrasti, post-emergence, 504 h; for pest or weed control at 560 g/ha: compound 560 g ae/ha; for pest or weed control at 1120 g/ha: compound 1120 g ae/ha, read-out: % Control
[8] = tested on: Amaranthus rudis (AMATA), tall water hemp; assay: Postemergence herbicide evaluation, growth of Amaranthus rudis (AMATA); format: in vivo; conditions: Amaranthus tuberculatus, post-emergence, percent reduction in plant size relative to untreated control, read-out: Ave. AMATA; for pest or weed control at 280 g/ha: 280 g ae/ha; for pest or weed control at 560 g/ha: 560 g ae/ha
[9] = Trial Bridge 2, compound 560 g ae/ha + Saflufenacil 25 g ai or ae/ha
[10] = Trial Bridge 2, compound 560 g ae/ha + Saflufenacil 75 g ai or ae/ha
[11] = Trial Bridge 2, compound 560 g ae/ha + Trifludimoxazin 50 g ai or ae/ha
[12] = Trial Bridge 2, compound 1120 g ae/ha + Saflufenacil 25 g ai or ae/ha
[13] = Trial Bridge 2, compound 1120 g ae/ha + Saflufenacil 75 g ai or ae/ha
[14] = Trial Bridge 2, compound 1120 g ae/ha + Trifludimoxazin 12.5 g ai or ae/ha
[15] = Trial Bridge 2, compound 1120 g ae/ha + Trifludimoxazin 50 g ai or ae/ha
[16] = Trial Bridge 1, compound 560 g ae/ha, no mixing partner
[17] = Trial Bridge 1, compound 1120 g ae/ha, no mixing partner
[18] = Trial Bridge 1, compound 560 g ae/ha + Arylex 5 g ai or ae/ha
[19] = Trial Bridge 1, compound 560 g ae/ha + Mesotrione 150 g ai or ae/ha
[20] = Trial Bridge 1, compound 1120 g ae/ha + Glufosinate 600 g ai or ae/ha
[21] = Trial Bridge 1, compound 1120 g ae/ha + Mesotrione 150 g ai or ae/ha
[22] = compound 1120 g ae/ha, no mixing partner, Trial Bridge 3
[23] = no mixing partner, Trial Bridge 3
[24] = Trial Bridge 1, mixing partner none
[25] = Trial Bridge 2, no mixing partner

With O=C(COc1ccc(Cl)cc1Cl)NOCc1ccccc1 [Compound D8, N-(Benzyloxy)-2-(2,4-dichlorophenoxy)acetamide] the “% Control” value [1, 9] was 100%, the “% Control” value [1, 10] was 100% and the “% Control” value ([1]; Trial Bridge 2, compound 560 g ae/ha + Trifludimoxazin 12.5 g ai or ae/ha) was 100%. For the same compound, the “% Control” value [1, 11] was 100%, the “% Control” value [1, 12] was 100% and the “% Control” value [1, 13] was 100%. The “% Control” value [1, 14] was 100%, the “% Control” value [1, 15] was 100% and the “% Control” value ([1]; Trial Bridge 3, compound 560 g ae/ha + Sulfentrazone 130 g ai/ha) was 100%. The “% Control” value ([1]; Trial Bridge 3, compound 560 g ae/ha + Sulfentrazone 347 g ai/ha) was 100%, the “% Control” value ([1]; Trial Bridge 3, compound 1120 g ae/ha + Sulfentrazone 130 g ai/ha) was 100% and the pest or weed control at 560 g/ha ([1]; Trial Bridge 2, compound 560 g ae/ha, no mixing partner) was 98%. The pest or weed control at 1120 g/ha ([1]; Trial Bridge 2, compound 1120 g ae/ha, no mixing partner) was 100%, the pest or weed control at 560 g/ha ([1]; Trial Bridge 3, compound 560 g ae/ha, no mixing partner) was 100% and the pest or weed control at 1120 g/ha ([1]; Trial Bridge 3, compound 1120 g ae/ha, no mixing partner) was 100%. The pest or weed control at 560 g/ha [1, 16] was 95%, the pest or weed control at 1120 g/ha [1, 17] was 100% and the “% Control” value [1, 18] was 100%. For the same compound, the “% Control” value [1, 19] was 100%, the “% Control” value [1, 16] was 95% and the “% Control” value [1, 20] was 100%. The “% Control” value [1, 21] was 100%, the pest or weed control at 280 g/ha ([2]; 168 h, 7 DAA) was 68% and the pest or weed control at 560 g/ha ([2]; 168 h, 7 DAA) was 75%. The pest or weed control at 280 g/ha ([2]; 336 h, 14 DAA) was 96%, the pest or weed control at 560 g/ha ([2]; 336 h, 14 DAA) was 95% and the pest or weed control at 280 g/ha ([2]; 504 h, 21 DAA) was 99%. For the same compound, the pest or weed control at 560 g/ha ([2]; 504 h, 21 DAA) was 99%, the “TGA Data (rate of weight loss, volatility)” value [3] was 0.04 µg/min and the pest or weed control at 280 g/ha ([4]; 168 h, 7 DAA) was 83%. The pest or weed control at 560 g/ha ([4]; 168 h, 7 DAA) was 83%, the pest or weed control at 280 g/ha ([4]; 336 h, 14 DAA) was 93% and the pest or weed control at 560 g/ha ([4]; 336 h, 14 DAA) was 91%. The pest or weed control at 280 g/ha ([4]; 504 h, 21 DAA) was 99%, the pest or weed control at 560 g/ha ([4]; 504 h, 21 DAA) was 96% and the pest or weed control at 280 g/ha ([5]; 168 h, 7 DAA) was 68%. It also gave a pest or weed control at 560 g/ha ([5]; 168 h, 7 DAA) of 70%, a pest or weed control at 280 g/ha ([5]; 336 h, 14 DAA) of 88% and a pest or weed control at 560 g/ha ([5]; 336 h, 14 DAA) of 85%. The pest or weed control at 280 g/ha ([5]; 504 h, 21 DAA) was 95%, the pest or weed control at 560 g/ha ([5]; 504 h, 21 DAA) was 92% and the pest or weed control at 280 g/ha ([6]; 168 h, 7 DAA) was 70%. It also gave a pest or weed control at 560 g/ha ([6]; 168 h, 7 DAA) of 73%, a pest or weed control at 280 g/ha ([6]; 336 h, 14 DAA) of 85% and a pest or weed control at 560 g/ha ([6]; 336 h, 14 DAA) of 88%. For the same compound, the pest or weed control at 280 g/ha ([6]; 504 h, 21 DAA) was 88%, the pest or weed control at 560 g/ha ([6]; 504 h, 21 DAA) was 93% and the pest or weed control at 280 g/ha ([7]; 168 h, 7 DAA) was 63%. The pest or weed control at 560 g/ha ([7]; 168 h, 7 DAA) was 63%, the pest or weed control at 280 g/ha ([7]; 336 h, 14 DAA) was 65% and the pest or weed control at 560 g/ha ([7]; 336 h, 14 DAA) was 83%. For the same compound, the pest or weed control at 280 g/ha ([7]; 504 h, 21 DAA) was 75%, the pest or weed control at 560 g/ha ([7]; 504 h, 21 DAA) was 97% and the “% Control” value (Corn (ZEAMX); [22]) was 5%. It also gave a plant injury at 560 g/ha (Corn (ZEAMX); Trial Bridge 1, no mixing partner) of 5%, a plant injury at 1120 g/ha (Corn (ZEAMX); [17]) of 5% and a plant injury at 560 g/ha (Corn (ZEAMX); Trial Bridge 2, mixing partner none) of 5%. The plant injury at 560 g/ha (Corn (ZEAMX); [23]) was 10%, the plant injury at 1120 g/ha (Corn (ZEAMX); [22]) was 5% and the “% Control” value (Velvetleaf (ABUTH); compound 560 g ae/ha + Sulfentrazone 130 g ai/ha, Trial Bridge 3) was 100%. For the same compound, the “% Control” value (Velvetleaf (ABUTH); compound 1120 g ae/ha + Sulfentrazone 130 g ai/ha, Trial Bridge 3) was 100%, the “% Control” value (Velvetleaf (ABUTH); compound 1120 g ae/ha + Sulfentrazone 347 g ai/ha, Trial Bridge 3) was 100% and the pest or weed control at 560 g/ha (Velvetleaf (ABUTH); [23]) was 90%. It also gave a pest or weed control at 1120 g/ha (Velvetleaf (ABUTH); [23]) of 95%, a pest or weed control at 560 g/ha (Velvetleaf (ABUTH); [24]) of 100% and a pest or weed control at 1120 g/ha (Velvetleaf (ABUTH); [24]) of 100%. The pest or weed control at 560 g/ha (Velvetleaf (ABUTH); [25]) was 100%, the pest or weed control at 1120 g/ha (Velvetleaf (ABUTH); [25]) was 100% and the “% Control” value (Velvetleaf (ABUTH); [18]) was 100%. For the same compound, the “% Control” value (Velvetleaf (ABUTH); Trial Bridge 1, compound 560 g ae/ha + Glyphosate 1120 g ai or ae/ha) was 100%, the “% Control” value (Velvetleaf (ABUTH); [19]) was 100% and the “% Control” value (Velvetleaf (ABUTH); Trial Bridge 1, compound 560 g ae/ha + diclosulam 35 g ai or ae/ha) was 100%. For the same compound, the “% Control” value (Velvetleaf (ABUTH); Trial Bridge 1, compound 1120 g ae/ha + Arylex 5 g ai or ae/ha) was 100%, the “% Control” value (Velvetleaf (ABUTH); [20]) was 100% and the “% Control” value (Velvetleaf (ABUTH); Trial Bridge 1, compound 1120 g ae/ha + Glyphosate 1120 g ai or ae/ha) was 100%. The “% Control” value (Velvetleaf (ABUTH); [21]) was 100%, the “% Control” value (Velvetleaf (ABUTH); Trial Bridge 1, compound 1120 g ae/ha + diclosulam 35 g ai or ae/ha) was 100% and the “% Control” value (Velvetleaf (ABUTH); [9]) was 100%. For the same compound, the “% Control” value (Velvetleaf (ABUTH); [10]) was 100%, the “% Control” value (Velvetleaf (ABUTH); [11]) was 100% and the “% Control” value (Velvetleaf (ABUTH); [12]) was 100%. The “% Control” value (Velvetleaf (ABUTH); [13]) was 100%, the “% Control” value (Velvetleaf (ABUTH); [14]) was 100% and the “% Control” value (Velvetleaf (ABUTH); [15]) was 100%. The pest or weed control at 280 g/ha ([8]; 168 h, 7 DAA) was 68%, the pest or weed control at 560 g/ha ([8]; 168 h, 7 DAA) was 75% and the pest or weed control at 280 g/ha ([8]; 336 h, 14 DAA) was 85%. The pest or weed control at 560 g/ha ([8]; 336 h, 14 DAA) was 85%, the pest or weed control at 280 g/ha ([8]; 504 h, 21 DAA) was 73% and the pest or weed control at 560 g/ha ([8]; 504 h, 21 DAA) was 83%.
